Assay [1] concerns 42 Tier 2 clade B and C viruses. The conditions noted are these: read-out: geometric mean titers (GMT) IC50, sensitive strains; cited from earlier work.
In the next assay the target is full-length gp120 (Human immunodeficiency virus type 1 group M subtype B, UniProt P35961). The following applies: gp120 binding; cited from earlier work.
Assay [2] deals with HIV-1YU2 virus in CD4 negative Cf2Th-CCR5 cells. The conditions noted are these: cells lacking the CD4 receptor (CD4–CCR5+ Cf2Th cells); cited from earlier work.
The subject of a further assay is clade C viruses. In words: Neutralization of clade C Env pseudoviruses. The assay is classed as cell-based, HIV-1.
A further assay concerns clade B viruses. The assay is described as follows: Neutralization of clade B Env pseudoviruses. The assay is classed as cell-based, HIV-1.

For the compound `N=C(N)N[C@H]1Cc2ccccc2[C@@H]1NC(=O)C(=O)Nc1ccc(Cl)c(F)c1` [(+)-3], in assay [1], the IC50 was 7.9 µM.
For the compound `CC1(C)CC(NC(=O)C(=O)Nc2ccc(Cl)cc2)CC(C)(C)N1` [Compound 1, NBD-556], on full-length gp120, the ΔH is -24.5 kcal/mol and the “−TΔS” value is given as 17.1 kcal/mol. The CD4-independent viral entry entry in assay [2] is listed as “agonists of CD4-independent viral entry”.
In turn, `N=C(N)NC[C@H]1Cc2ccccc2[C@@H]1NC(=O)C(=O)Nc1ccc(Cl)c(F)c1.O=CO` [(+)-4] showed a neutralization breadth in the assay with clade C viruses of 59%. Moreover, in the assay with clade B viruses, the “improvement over (+)-3 based on IC50 titers” value is 60%, the “improvement over (+)-3 based on IC80 titers” value was found to be 1.5 fold and the neutralization breadth is given as 100%.
Turning to `N=C(N)N[C@@H]1Cc2ccccc2[C@H]1NC(=O)C(=O)Nc1ccc(Cl)c(F)c1` [(−)-3], in assay [1], the IC50 is 8.9 µM.

The values are drawn from article PMC3647702 (ACS medicinal chemistry letters, 2013).
